# Data: PubChem BioAssay AID1195 (EPA DSSTox, 2008)
# Test system: human maximum recommended daily dose, FDA database
# Assay: DSSTox (FDAMDD) FDA Maximum (Recommended) Daily Dose Database
# Conditions: hits give low values
# Source text: The Food and Drug Administration (FDA) Center for Drug Evaluation and Research, Office of Pharmaceutical Science, Informatics and Computational Safety Analysis Staff's Maximum Recommended Daily Dose (FDAMDD) database contains values for over 1200 pharmaceuticals listed in Martindale: The Extra Pharmacopoeia (1973, 1983, and 1993) and The Physicians' Desk Reference (1995 and 1999). Some classes of chemicals were excluded from the FDAMDD database due to their unsuitability for most QSAR modeling programs. These were inorganic chemicals, high molecular weight polymers (>5000 Daltons), fibers, salts, mixtures of organic chemicals, and small molecules (<100 Daltons). FDAMDD is the non-proprietary portion of the database that was used in the QSAR analysis reported in the Main Citation. DSSTox FDAMDD has fewer substance records than the original MRDD Source database due to consolidation of partial structures (i.e., complexed entities) into a single record and elimination of duplicate entries. DSSTox FDAMDD also differs from the MRDD Source database in presenting complete structural information pertaining to the actual salt or complexed form corresponding to the listed ChemicalName and CASRN. According to the Source authors, there are a number of cases where multiple related forms or derivatives of a drug were listed as separate records but were assumed to fall under the same clinical toxicity assessment and, therefore, assigned the same Dose_MRDD_mg activity value. For the DSSTox FDAMDD, we have labeled these derivatives in the ChemClass_MRDD_grouping field and provide their counts in the ChemicalReplicateCount field to highlight their special nature.
# Maximum recommended daily dose (or maximum recommended therapeutic dose) values were determined from pharmaceutical clinical trials that employed an oral route of exposure and daily treatments, usually for 3-12 months. Drugs were given as single or divided dose treatment regimens to achieve desired pharmacological effects. Roughly 5% of the pharmaceuticals in the FDAMDD data file were antineoplastics and anesthetics and were administered intravenously and/or intramuscularly. When separate MRDDs were reported for different routes of exposure, only the oral MRDD was included in the data file and only MRDD values reported for the average adult patient were used. Pharmaceuticals that are administered orally are usually tested over a limited range of doses and have MRDDs reported as mg/day. The mg/day unit was converted to mg/kg-body weight (bw)/day based upon an average adult weighing 60 kg. In contrast, the dose unit for most antineoplastic drug MRDDs is reported as mg/m2 which was converted to mg/kg-bw/day using the formula mg/kg-bw/day = mg/m2/37 for an average adult. Additionally, a few drugs had MRDDs reported in parts per million (ppm) which were converted to mg/kg-bw/day on the basis that 1000 ppm equals 25 mg/kg-bw/day for an average 60 kg adult. Activity Score is mapping of LOG10(1/Dose_MRDD_mmol) spanning activity range [MIN, MAX] onto Integer 1-100 Activity range, where 100 is highest potency and 1 is lowest potency: ActivityScore = 100 * INTEGER[(LOGINV_MRDD_mmol - MIN)/(MAX […] MIN)]. Activity Outcome is "active" for all substances, since Dose_MRDD_mmol is reported for all substances.
# [1] = TherapeuticCategory: glucocorticoid
# [2] = TherapeuticCategory: diagnostic aid
# [3] = TherapeuticCategory: anti inflammatory
# [4] = TherapeuticCategory: antineoplastic
# [5] = TherapeuticCategory: antibacterial
# [6] = TherapeuticCategory: antihypertensive
smiles,measurement,setting,value
CC(=O)OCC(=O)[C@@]1(OC(=O)C(C)C)[C@@H](C)C[C@H]2[C@@H]3CCC4=CC(=O)C=C[C@]4(C)[C@@]3(F)[C@@H](O)C[C@@]21C,maximum recommended daily dose (mmol/kg-bw/day),[1],0.000297
CN(CC(=O)N1CCOCC1)Cc1c(Cl)cccc1NC(=O)c1ccccc1,maximum recommended daily dose (mmol/kg-bw/day),"TherapeuticCategory: antitussive, respiratory stimulant",0.0199
CNC(=O)c1c(I)c(NC(=O)CCCCC(=O)Nc2c(I)c(C(=O)O)c(I)c(C(=O)NC)c2I)c(I)c(C(=O)O)c1I,maximum recommended daily dose (mmol/kg-bw/day),[2],0.0798
CC(C)Cc1ccc(C(C)C(=O)O)cc1 (centres undefined),maximum recommended daily dose (mmol/kg-bw/day),[3],0.194
Cn1c(=O)c2[nH]cnc2n(C)c1=O,maximum recommended daily dose (mmol/kg-bw/day),TherapeuticCategory: bronchodilator,0.0481
CCN(C)C(=O)Oc1cccc([C@H](C)N(C)C)c1,maximum recommended daily dose (mmol/kg-bw/day),TherapeuticCategory: cholinesterase inhibitor,0.000799
CN(C)CCC=C1c2ccccc2CCc2ccccc21,maximum recommended daily dose (mmol/kg-bw/day),TherapeuticCategory: antidepressant,0.018
CN(C)c1nc(N(C)C)nc(N(C)C)n1,maximum recommended daily dose (mmol/kg-bw/day),[4],0.0257
O=C1C(CCS(=O)c2ccccc2)C(=O)N(c2ccccc2)N1c1ccccc1 (centres undefined),maximum recommended daily dose (mmol/kg-bw/day),TherapeuticCategory: uricosuric,0.0329
C[C@@H]1C[C@H]2[C@@H]3C[C@H](F)C4=CC(=O)C=C[C@]4(C)[C@H]3[C@@H](O)C[C@]2(C)[C@@]1(O)C(=O)CO,maximum recommended daily dose (mmol/kg-bw/day),[1],0.00102
COc1cc(NS(=O)(=O)c2ccc(N)cc2)nc(C)n1,maximum recommended daily dose (mmol/kg-bw/day),[5],0.113
CC(Oc1c(Cl)cccc1Cl)C1=NCCN1 (centres undefined),maximum recommended daily dose (mmol/kg-bw/day),[6],0.000154
CN(C)CCC(O)(c1ccccc1)c1ccccc1Cl (centres undefined),maximum recommended daily dose (mmol/kg-bw/day),TherapeuticCategory: antitussive,0.00576
CC(C)(C)NCC(O)COc1ccccc1C#N (centres undefined),maximum recommended daily dose (mmol/kg-bw/day),"TherapeuticCategory: antihypertensive, antianginal, antiarrhythmic",0.00269
N[C@@H](C(=O)N[C@@H]1C(=O)N2C(C(=O)O)=C(CSc3cn[nH]n3)CS[C@H]12)c1ccc(O)cc1,maximum recommended daily dose (mmol/kg-bw/day),[5],0.0361
OCCN1CCN(CCCN2c3ccccc3C=Cc3ccccc32)CC1,maximum recommended daily dose (mmol/kg-bw/day),"TherapeuticCategory: antidepressant, antipsychotic",0.0138
CC1CCN(CCCC(=O)c2ccc(F)cc2)CC1,maximum recommended daily dose (mmol/kg-bw/day),TherapeuticCategory: neuroleptic,0.0253
C=CCN1CC[C@]23c4c5ccc(O)c4O[C@H]2[C@@H](O)C=C[C@H]3[C@H]1C5,maximum recommended daily dose (mmol/kg-bw/day),TherapeuticCategory: narcotic antagonist,0.00214
CN(N=O)C(=O)N[C@@H]1[C@@H](O)[C@H](O)[C@@H](CO)O[C@@H]1O,maximum recommended daily dose (mmol/kg-bw/day),[4],0.407
CC1(C)C(\C=C/C=C\C=C/C=C2/N(CCCCS(=O)(=O)O)c3ccc4ccccc4c3C2(C)C)=[N+](CCCCS(=O)(=O)[O-])c2ccc3ccccc3c21,maximum recommended daily dose (mmol/kg-bw/day),[2],0.000645
CCOc1nc2cccc(C(=O)O)c2n1Cc1ccc(-c2ccccc2-c2nn[nH]n2)cc1,maximum recommended daily dose (mmol/kg-bw/day),[6],0.000606
NC[C@H]1O[C@H](O[C@H]2[C@H](O)[C@@H](O)[C@H](N)C[C@@H]2N)[C@H](N)[C@@H](O)[C@@H]1O,maximum recommended daily dose (mmol/kg-bw/day),[5],0.31
CCN(CC)C(=O)c1ccc(O)c(OC)c1,maximum recommended daily dose (mmol/kg-bw/day),TherapeuticCategory: central and respiratory stimulant,0.0187
c1ccc([C@H]2CN3CCSC3=N2)cc1,maximum recommended daily dose (mmol/kg-bw/day),TherapeuticCategory: anthelmintic,0.00408
CCC[C@@H]1O[C@@H]2C[C@H]3[C@@H]4CCC5=CC(=O)C=C[C@]5(C)[C@H]4[C@@H](O)C[C@]3(C)[C@]2(C(=O)CO)O1,maximum recommended daily dose (mmol/kg-bw/day),[3],1.01e-05
CCC(=O)O[C@]1(C(=O)COC(C)=O)CC[C@H]2[C@@H]3C[C@H](C)C4=CC(=O)C=C[C@]4(C)[C@H]3[C@@H](O)C[C@@]21C,maximum recommended daily dose (mmol/kg-bw/day),[1],0.00882
CC(=O)O[C@]1(C(C)=O)CC[C@H]2[C@@H]3C=C(Cl)C4=CC(=O)[C@@H]5C[C@@H]5[C@]4(C)[C@H]3CC[C@@]21C,maximum recommended daily dose (mmol/kg-bw/day),TherapeuticCategory: antiandrogen,0.012
O=C(O)Cc1ccccc1Nc1c(Cl)cccc1Cl,maximum recommended daily dose (mmol/kg-bw/day),[3],0.0127
O=C1CN(/N=C/c2ccc(-c3ccc([N+](=O)[O-])cc3)o2)C(=O)N1,maximum recommended daily dose (mmol/kg-bw/day),TherapeuticCategory: skeletal muscle relaxant,0.0212
